For data set [1], the target named is T1, sweet taste receptors T1R2/T1R3 (Homo sapiens, UniProt Q7RTX0+Q8TE23).
T1 construct: receptor internalization assay (“Ring Assay”) on an H716 cell line; endogenous in cells; host or cells: H716 cell line
T1 sequence (Q8TE23 20-839): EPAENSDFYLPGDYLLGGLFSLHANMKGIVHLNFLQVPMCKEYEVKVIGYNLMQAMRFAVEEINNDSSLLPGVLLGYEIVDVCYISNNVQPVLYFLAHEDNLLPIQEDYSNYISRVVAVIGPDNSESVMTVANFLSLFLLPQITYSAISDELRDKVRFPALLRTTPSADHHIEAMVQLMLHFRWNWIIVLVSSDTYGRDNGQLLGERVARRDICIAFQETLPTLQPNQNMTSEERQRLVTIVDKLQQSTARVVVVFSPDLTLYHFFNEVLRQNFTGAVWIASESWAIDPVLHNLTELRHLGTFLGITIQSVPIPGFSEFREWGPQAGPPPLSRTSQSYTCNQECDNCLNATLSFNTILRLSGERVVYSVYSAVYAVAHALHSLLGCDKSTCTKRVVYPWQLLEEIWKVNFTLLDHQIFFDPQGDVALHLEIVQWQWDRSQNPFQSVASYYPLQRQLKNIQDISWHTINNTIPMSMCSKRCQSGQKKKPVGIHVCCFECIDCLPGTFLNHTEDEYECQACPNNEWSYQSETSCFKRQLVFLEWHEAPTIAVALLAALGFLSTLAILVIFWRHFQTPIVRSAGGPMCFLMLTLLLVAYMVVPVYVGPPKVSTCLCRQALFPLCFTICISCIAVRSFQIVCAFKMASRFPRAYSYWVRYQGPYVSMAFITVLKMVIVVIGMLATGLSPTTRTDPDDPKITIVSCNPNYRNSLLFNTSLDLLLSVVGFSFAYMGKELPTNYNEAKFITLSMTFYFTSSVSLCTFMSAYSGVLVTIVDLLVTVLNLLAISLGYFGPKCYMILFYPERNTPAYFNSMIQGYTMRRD
T1 sequence (Q7RTX0 21-852): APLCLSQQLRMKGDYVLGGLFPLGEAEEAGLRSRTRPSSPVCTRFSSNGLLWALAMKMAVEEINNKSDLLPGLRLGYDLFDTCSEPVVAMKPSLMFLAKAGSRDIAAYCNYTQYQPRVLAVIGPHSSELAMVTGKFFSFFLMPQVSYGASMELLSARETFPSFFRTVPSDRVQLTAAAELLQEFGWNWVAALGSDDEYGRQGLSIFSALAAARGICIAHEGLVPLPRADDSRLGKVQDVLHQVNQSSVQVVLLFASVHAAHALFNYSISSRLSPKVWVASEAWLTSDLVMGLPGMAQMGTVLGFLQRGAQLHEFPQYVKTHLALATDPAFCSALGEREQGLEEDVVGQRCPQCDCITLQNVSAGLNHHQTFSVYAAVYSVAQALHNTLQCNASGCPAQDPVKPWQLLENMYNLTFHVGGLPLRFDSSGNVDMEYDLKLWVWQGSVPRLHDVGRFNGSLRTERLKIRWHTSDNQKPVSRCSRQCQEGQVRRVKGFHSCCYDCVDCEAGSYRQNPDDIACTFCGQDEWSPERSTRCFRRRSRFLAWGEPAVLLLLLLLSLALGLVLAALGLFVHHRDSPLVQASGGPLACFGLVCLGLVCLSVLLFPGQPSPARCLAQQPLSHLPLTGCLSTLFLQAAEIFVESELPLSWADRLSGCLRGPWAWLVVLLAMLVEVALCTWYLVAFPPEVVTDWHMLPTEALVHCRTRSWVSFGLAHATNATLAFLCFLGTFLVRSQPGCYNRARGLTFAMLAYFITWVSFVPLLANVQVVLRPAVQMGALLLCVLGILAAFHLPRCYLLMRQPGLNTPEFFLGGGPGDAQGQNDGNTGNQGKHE
Nature of the data set: Taste receptor internalization assay (Ring Assay), sweet. The data set is classed as cell-based. The following applies: for EC50 value, sweet receptor dose response: combined with the stevia blend 4, Example 15; for slope of the dose response curve: with the stevia 4 blend, individual compound vs the combination of compounds 1 and 10, FIGS. 51, 52, 55. How it is done:
(§1) The control samples and samples I-X were tested for their ability to activate sweet taste receptors T1R2/T1R3, GLUT4, and Glucagon and bitter taste receptors T2R using a taste receptor internalization assay. Receptor activation and internalization was measured using images acquired by an IMAGEXPRESS Micro automated epifluorescence microscope (Molecular Devices Corporation). The images were analyzed with METAXPRESS 5.1 Workstation software, utilizing the Multiwaves Translocation Scoring analysis algorithm for nuclear and cytoplasmic segmentation. Curve fitting and parameter estimation were then analyzed with TIBCO SPOTFIRE.
(§2) Taste Receptor Internalization General Procedure:
The two control samples and Samples I-X were each serially diluted eight times at a ratio of […] in water (1 part sample to 2 parts water) and dose response was determined by conducting a receptor internalization assay (“Ring Assay”) on an H716 cell line with an HCI platform using the methods disclosed in PCT Patent Application Publication No. WO 2014/183041. Receptor internalization was measured at 5 and 15 minutes. EC50 values and Maximum-Minimum (“Max-Min”) values were calculated using SPOTFIRE software. Sweet, aftertaste, glucagon, and bitterness scoring were calculated using analysis of variance (ANOVA). A median value was then calculated by dividing the Max-Min value by the EC50 value for all time points. The median values, which represent receptor activity, were then plotted on radar graphs, as shown in FIGS. 9A-9B, 10A-10B, 11A-11B, 12A-12B, 13, 14A-14B, 15A-15B, 16A-16B, 17A-17B, 18A-18B, and 19.
Several sets of aqueous samples were prepared to study the dose response for the sweet taste receptors. One set of samples was prepared by adding the stevia blend 4 (1.3 wt % rebaudioside D and 6.7 wt % SG95) to water and adding 0.32 wt % potassium sorbate. Malic acid was added to the solution until the pH was 3.5. Eleven sets of aqueous samples were prepared by separately combining the same stevia 4 blend with either 2-methylbutanol or one of the compounds listed in Table 4. Another set of samples was prepared by adding sugar to water. Four additional sets of aqueous samples were prepared by separately combining each of the stevia blend 4, above, and sugar with either compounds 1 and 10 or compounds 2, 6, and 10 from Table 4. One final set of aqueous samples was prepared by combining the stevia blend 4, above, with compounds 1, 2, 3, and 10 from Table 4. Each set of samples were serially diluted and had concentrations ranging from about 0.001 nM to about 100 μM.
The aqueous samples were tested at varying concentrations for their ability to activate the sweet taste receptors in accordance with the procedures described in Example 8. Dose response curves were generated for the stevia 4 blend, sugar, and each compound-stevia 4 blend combination.

In data set [2] the test system is bitter taste receptors T2R. Briefly: Taste receptor internalization assay (Ring Assay), bitter. The data set is classed as cell-based. How it is done:
as §1, §2
(§3) The two control samples and Samples I-X were each serially diluted eight times at a ratio of 1:1 in water (1 part sample to 2 parts water) and dose response was determined by conducting a receptor internalization assay (“Ring Assay”) on an H716 cell line with an HCI platform using the methods disclosed in PCT Patent Application Publication No. WO 2014/183041. Receptor internalization was measured at 5 and 15 minutes. EC50 values and Maximum-Minimum (“Max-Min”) values were calculated using SPOTFIRE software. Sweet, aftertaste, glucagon, and bitterness scoring were calculated using analysis of variance (ANOVA). A median value was then calculated by dividing the Max-Min value by the EC50 value for all time points. […]

The next data set has as its system Glucagon. Briefly: Taste receptor internalization assay (Ring Assay), glucagon. The data set is classed as cell-based. The following applies: added to 8% stevia blend 3 base solution; compared to the sample with compound 2. The method, then:
as §1, §2, §3

The test system of data set [3] is sweet taste receptors T1R2/T1R3, GLUT4, and Glucagon and bitter taste receptors T2R. Briefly: Taste receptor internalization assay, overall receptor response profile. The data set is classed as cell-based. The following applies: Sample X vs Sample IX; FIG. 10A. How it is done: as §1, §2, §3
The conditions of data set [4]: compared with Rebaudioside A; cited from earlier work.
The conditions of data set [5]: compared with other steviol glycosides; cited from earlier work.
Where [6] appears, read: added to 0.2% stevia blend 3 base solution, Example 11.
Setting [7] is: added to 8 wt % stevia blend 3 base solution, Examples 10 and 11.

“Also recorded” adds a separate entry of the source.

Here are results for five compounds from patent US11751586B2, “Compositions and methods for improving taste of non-nutritive sweeteners” (PEPSICO, INC., priority 2016, dated 2023).

For `CCCC[C@@H]1OC(=O)C[C@H]1C` (relative stereo) [Compound 10, Trans-4-Methyl-5-butyldihydro-2(3H)-furanone], in data set [1], the “EC50 value, sweet receptor dose response” value is “smaller” and the “slope of the dose response curve” value was “smaller”.

Turning to `CCC(C)CO` (centres unmarked) [2-methylbutanol], the bitterness receptor response result in data set [2] (setting [6]) is “high sweet and bitterness”; in data set [2] (setting [7]), “no bitterness”. Besides, the sweet receptor response entry in data set [1] (setting [6]) is given as “high sweet”. Moreover, in data set [1] (setting [7]), the “sweetness (sweet receptor) response” value is “low sweet; also recorded: significantly lower”. Besides, the glucagon receptor response entry in the data set on Glucagon is recorded as “significantly lower”.

On to `CCCCOC(C)=O` [Compound 1, Butyl Acetate], for which, in data set [1], the “EC50 value, sweet receptor dose response” value is reported as “smaller” and the “slope of the dose response curve” value is listed as “smaller”.

`CC(C)CCO` [Compound 2, 3-Methylbutanol]: the “EC50 value, sweet receptor dose response” value in data set [1] is recorded as “low”. The taste modulator classification result in data set [1] (for the stevia 4 blend, FIG. 57) is listed as “sweet enhancer”. For the same compound, the “effect on the taste profile of stevia” value in data set [3] is recorded as “sweet/glucagon enhancer”.

For the compound `C=C1C[C@@]23CC[C@H]4[C@@](C)(CCC[C@@]4(C)C(=O)O[C@@H]4O[C@H](CO)[C@@H](O)[C@H](O)[C@H]4O[C@@H]4O[C@H](CO)[C@@H](O)[C@H](O)[C@H]4O)[C@@H]2CC[C@]1(O[C@@H]1O[C@H](CO)[C@@H](O)[C@H](O[C@@H]2O[C@H](CO)[C@@H](O)[C@H](O)[C@H]2O)[C@H]1O[C@@H]1O[C@H](CO)[C@@H](O)[C@H](O)[C@H]1O)C3` [Rebaudioside D], the water solubility result in data set [4] is recorded as “less water soluble than Rebaudioside A”. Further, the taste profile entry in data set [5] is “almost lacking the bitterness and lingering licorice aftertaste”.
